Active and inactive are the calls of the source. The rule behind the calls is not given here.

Test [1] has as its target Prohibitin-2 (Homo sapiens) (UniProt Q99623). Put plainly: Induction of PHB2-mediated melanogenesis in human HBL cells assessed as pigmentation at 1 uM after 10 days relative to control. It counts as cell-based.
The target is the same in test [2]. Put plainly: Induction of PHB2-mediated melanogenesis in human HBL cells assessed as pigmentation at 10 uM after 10 days relative to control. The class given is cell-based.
The test system of the next test is HBL. The experiment in a line: Induction of apoptosis in human HBL cells at 1 to 10 uM after 48 hrs by Annexin V-PE/7-AAD staining based flow cytometry. The class given is functional, cell-based. Background: A flow cytometer gives signals particle by particle.
The species entered for test [3] is Homo sapiens. Put plainly: Induction of apoptosis in human MM043 cells at 1 to 10 uM after 48 hrs by Annexin V-PE/7-AAD staining based flow cytometry. The class given is functional, cell-based.
The species named for test [4] is Homo sapiens. The experiment in a line: Induction of apoptosis in human MM162 cells at 1 to 10 uM after 48 hrs by Annexin V-PE/7-AAD staining based flow cytometry. The class given is functional, cell-based.

Sequence of Prohibitin-2 (Homo sapiens) (Q99623 whole entry): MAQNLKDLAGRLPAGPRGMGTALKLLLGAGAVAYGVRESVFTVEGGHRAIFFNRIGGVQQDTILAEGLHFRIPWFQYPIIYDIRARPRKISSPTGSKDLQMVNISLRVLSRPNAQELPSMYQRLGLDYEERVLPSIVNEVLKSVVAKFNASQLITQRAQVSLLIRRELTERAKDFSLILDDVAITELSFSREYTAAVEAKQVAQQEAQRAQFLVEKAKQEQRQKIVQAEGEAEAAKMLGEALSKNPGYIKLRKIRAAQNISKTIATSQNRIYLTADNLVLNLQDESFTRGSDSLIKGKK

Regarding `Fc1cccc(CNc2nc(NCCCCc3ccccc3)nc(Oc3c(F)c(F)c(F)c(F)c3F)n2)c1`, the fold change (FC) in test [1] came out at 0.9; in test [2], 1.

Turning to `CN1CCN(c2nc(NCc3cccc(F)c3)nc(Oc3c(F)c(F)c(F)c(F)c3F)n2)CC1`, the fold change (FC) in test [1] amounted to 0.78; in test [2] it was 0.65.

As for `CC(C)CCNc1nc(NCc2cccc(F)c2)nc(Oc2c(F)c(F)c(F)c(F)c2F)n1`, the fold change (FC) in test [1] worked out at 0.7; in test [2] it was 0.89.

For `Fc1cccc(CNc2nc(NCc3ccccc3)nc(Oc3c(F)c(F)c(F)c(F)c3F)n2)c1`, the fold change (FC) in test [1] worked out at 0.89; in test [2] it was 1.1.

As for `CN(C)CCCNc1nc(Oc2c(F)c(F)c(F)c(F)c2F)nc(N2CCCc3ccccc3C2)n1`, the fold change (FC) came out at 0.96 in test [1] and 1.57 in test [2].

Turning to `FC1(F)N=C(c2ccc(Cl)cc2)SC1(F)c1ccc(Cl)cc1` (stereo not drawn), the fold change (FC) in test [1] is 1.51; in test [2], 1.37.

Regarding `CC[C@H](CO)Nc1nc(Oc2c(F)c(F)c(F)c(F)c2F)nc(N(C)Cc2cccc(F)c2)n1`, the fold change (FC) in test [1] was found to be 0.77; in test [2], 0.81.

As for `Fc1cccc(CNc2nc(NCCCc3ccccc3)nc(Oc3c(F)c(F)c(F)c(F)c3F)n2)c1`, the fold change (FC) in test [1] and in test [2] was 1.07 in each case.

For the compound `Fc1cccc(CNc2nc(NCCc3cc4ccccc4[nH]3)nc(Oc3c(F)c(F)c(F)c(F)c3F)n2)c1`, the fold change (FC) came to 1.09 in test [1] and 1.25 in test [2].

Turning to `CN(C)CCNc1nc(Oc2c(F)c(F)c(F)c(F)c2F)nc(N(C)Cc2cccc(F)c2)n1`, the fold change (FC) in test [1] was found to be 1.15; in test [2], 1.97.

Regarding `CCC(Nc1nc(NCCN(C)C)nc(Oc2c(F)c(F)c(F)c(F)c2F)n1)c1cccc(F)c1` (stereo not drawn), the fold change (FC) was determined as 0.86 in test [1] and 0.55 in test [2].

Regarding `CNc1nc(NCc2ccccc2)nc(Oc2c(F)c(F)c(F)c(F)c2F)n1`, the results for the fold change (FC) in test [1] and in test [2] were 0.9 and 0.69, respectively.

For the compound `CC(Nc1nc(NCCN(C)C)nc(Oc2c(F)c(F)c(F)c(F)c2F)n1)c1cccc(F)c1` (stereo not drawn), the fold change (FC) in test [1] was found to be 0.77; in test [2], 0.43.

Turning to `CNc1nc(Oc2c(F)c(F)c(F)c(F)c2F)nc(N(C)[C@H](C)c2ccccc2)n1`, the results for the fold change (FC) in test [1] and in test [2] were 0.88 and 0.94, respectively.

As to `CNc1nc(Oc2c(F)c(F)c(F)c(F)c2F)nc(N2Cc3ccccc3C2)n1`, the figures for the fold change (FC) in test [1] and in test [2] were 0.93 and 0.98, respectively.

Regarding `CCN(Cc1ccccc1)c1nc(NCCN(C)C)nc(Oc2c(F)c(F)c(F)c(F)c2F)n1`, the fold change (FC) in test [1] worked out at 1.11; in test [2], 1.43.

In the case of `Fc1cccc(CNc2nc(NCc3ccccn3)nc(Oc3c(F)c(F)c(F)c(F)c3F)n2)c1`, the fold change (FC) came to 1.02 in test [1] and 1.01 in test [2].

For the compound `CNc1nc(Oc2c(F)c(F)c(F)c(F)c2F)nc(N2CCc3ccccc3C2)n1`, the results for the fold change (FC) in test [1] and in test [2] were 0.84 and 0.87, respectively.

Turning to `Fc1cccc(CNc2nc(NCc3cccnc3)nc(Oc3c(F)c(F)c(F)c(F)c3F)n2)c1`, the fold change (FC) worked out at 0.92 in test [1] and 0.94 in test [2].

In the case of `CCC(CO)Nc1nc(NCc2cccc(F)c2)nc(Oc2c(F)c(F)c(F)c(F)c2F)n1` (stereo not drawn), the fold change (FC) in test [1] came out at 1.06; in test [2], 1.39.

Consider `Fc1cccc(CNc2nc(NCC3CCCO3)nc(Oc3c(F)c(F)c(F)c(F)c3F)n2)c1` (stereo not drawn), for which the values for the fold change (FC) in test [1] and in test [2] were 1.07 and 0.95, respectively.

On to `OCC1CCN(c2nc(NCc3cccc(F)c3)nc(Oc3c(F)c(F)c(F)c(F)c3F)n2)CC1`, for which the fold change (FC) in test [1] was 0.89; in test [2], 0.84.

In the case of `C[C@@H](Nc1nc(NCCN(C)C)nc(Oc2c(F)c(F)c(F)c(F)c2F)n1)c1ccccc1`, the figures for the fold change (FC) in test [1] and in test [2] were 0.78 and 0.61, respectively.

Turning to `Fc1cccc(CNc2nc(NCc3ccncc3)nc(Oc3c(F)c(F)c(F)c(F)c3F)n2)c1`, the fold change (FC) worked out at 0.77 in test [1] and 0.76 in test [2].

Take `Fc1cccc(CNc2nc(Oc3c(F)c(F)c(F)c(F)c3F)nc(N3CCOCC3)n2)c1`: the values for the fold change (FC) in test [1] and in test [2] were 0.85 and 0.93, respectively.

Consider `CN(C)CCNc1nc(Oc2c(F)c(F)c(F)c(F)c2F)nc(N(C)Cc2ccccc2)n1`, for which the fold change (FC) in test [1] was found to be 0.98; in test [2], 0.99.

`CN(C)C1CCN(c2nc(Oc3c(F)c(F)c(F)c(F)c3F)nc(N3CCCc4ccccc4C3)n2)CC1`: the fold change (FC) in test [1] was 0.83; in test [2] it was 1.51. Moreover, the outcome in the test on HBL, in the test filed under Homo sapiens [3] and in the test filed under Homo sapiens [4] was Active.

Consider `Fc1cccc(CNc2nc(NCCNc3ccccn3)nc(Oc3c(F)c(F)c(F)c(F)c3F)n2)c1`, for which the fold change (FC) in test [1] came to 0.97; in test [2], 1.09.

Turning to `CC[C@H](CO)Nc1nc(NC(C)c2cccc(F)c2)nc(Oc2c(F)c(F)c(F)c(F)c2F)n1` (stereo partly drawn), the fold change (FC) in test [1] came out at 0.78; in test [2], 0.68.

For `CNc1nc(Oc2c(F)c(F)c(F)c(F)c2F)nc(N2CCCc3ccccc3C2)n1`, the fold change (FC) in test [1] was 0.8; in test [2] it was 0.86.

In the case of `Fc1cccc(CNc2nc(NCCc3ccccc3)nc(Oc3c(F)c(F)c(F)c(F)c3F)n2)c1`, the fold change (FC) in test [1] came out at 0.9; in test [2] it was 1.11.

On to `O=C1CCCN1CCCNc1nc(NCc2cccc(F)c2)nc(Oc2c(F)c(F)c(F)c(F)c2F)n1`, for which the fold change (FC) in test [1] worked out at 0.99; in test [2], 1.04.

`CNc1nc(NC(C)c2cccc(F)c2)nc(Oc2c(F)c(F)c(F)c(F)c2F)n1` (stereo not drawn): the results for the fold change (FC) in test [1] and in test [2] were 1.01 and 0.84, respectively.

As for `CCC(Nc1nc(N[C@H](CC)CO)nc(Oc2c(F)c(F)c(F)c(F)c2F)n1)c1cccc(F)c1` (stereo partly drawn), the fold change (FC) in test [1] is 0.95; in test [2] it was 0.74.

Take `CN(C)CCNc1nc(NCc2cccc(F)c2)nc(Oc2c(F)c(F)c(F)c(F)c2F)n1`: the fold change (FC) was found to be 0.98 in test [1] and 0.59 in test [2].

`CNc1nc(NCc2cccc(F)c2)nc(Oc2c(F)c(F)c(F)c(F)c2F)n1`: the figures for the fold change (FC) in test [1] and in test [2] were 0.89 and 0.84, respectively.

Turning to `Fc1cccc(CNc2nc(Oc3c(F)c(F)c(F)c(F)c3F)nc(N3CCCC3)n2)c1`, the fold change (FC) in test [1] came out at 0.99; in test [2] it was 1.08.

Consider `CNc1nc(Oc2c(F)c(F)c(F)c(F)c2F)nc(N(C)Cc2cccc(F)c2)n1`, for which the results for the fold change (FC) in test [1] and in test [2] were 0.84 and 0.78, respectively.

On to `CNc1nc(N[C@H](C)c2ccccc2)nc(Oc2c(F)c(F)c(F)c(F)c2F)n1`, for which the fold change (FC) turned out to be 1.16 in test [1] and 0.89 in test [2].

Regarding `CC(=O)NCCNc1nc(NCc2cccc(F)c2)nc(Oc2c(F)c(F)c(F)c(F)c2F)n1`, the fold change (FC) was 0.91 in test [1] and 1 in test [2].

With `COCCNc1nc(NCc2cccc(F)c2)nc(Oc2c(F)c(F)c(F)c(F)c2F)n1`, the fold change (FC) is 0.8 in test [1] and 0.76 in test [2].

In the case of `Nc1nc(NCc2cccc(F)c2)nc(Oc2c(F)c(F)c(F)c(F)c2F)n1`, the fold change (FC) is 0.92 in test [1] and 0.91 in test [2].

For `CC[C@H](CO)Nc1nc(N[C@H](C)c2ccccc2)nc(Oc2c(F)c(F)c(F)c(F)c2F)n1`, the fold change (FC) in test [1] was 0.94; in test [2] it was 0.83.

For the compound `CC[C@H](CO)Nc1nc(Oc2c(F)c(F)c(F)c(F)c2F)nc(N(C)[C@@H](C)c2ccccc2)n1`, the fold change (FC) in test [1] stood at 0.96; in test [2], 0.89.

As to `C[C@@H](c1ccccc1)N(C)c1nc(NCCN(C)C)nc(Oc2c(F)c(F)c(F)c(F)c2F)n1`, the values for the fold change (FC) in test [1] and in test [2] were 0.94 and 0.71, respectively.

As to `CC[C@@H](CO)Nc1nc(NCc2cccc(F)c2)nc(Oc2c(F)c(F)c(F)c(F)c2F)n1`, the fold change (FC) in test [1] was determined as 0.8; in test [2], 0.61.

Turning to `CC[C@H](CO)Nc1nc(Oc2c(F)c(F)c(F)c(F)c2F)nc(N2CCCc3ccccc3C2)n1`, the fold change (FC) is 0.85 in test [1] and 0.74 in test [2].

Consider `CNc1nc(Oc2c(F)c(F)c(F)c(F)c2F)nc(N(C)[C@@H](C)c2ccccc2)n1`, for which the fold change (FC) was 1.01 in test [1] and 0.86 in test [2].

For the compound `C[C@H](c1ccccc1)N(C)c1nc(NCCN(C)C)nc(Oc2c(F)c(F)c(F)c(F)c2F)n1`, the fold change (FC) came out at 1.25 in test [1] and 1.53 in test [2].

Regarding `CN(C)c1nc(NCc2cccc(F)c2)nc(Oc2c(F)c(F)c(F)c(F)c2F)n1`, the fold change (FC) in test [1] came to 1.04; in test [2], 1.05.

Values taken from ChEMBL document CHEMBL4270538, “Targeting prohibitin with small molecules to promote melanogenesis and apoptosis in melanoma cells” (Eur J Med Chem, 2018).
